These results are taken from patent publication US12139488B2, “Pyrido[3,2-d]pyrimidine compounds uses thereof for treating a proliferative disease” (Universite de Montreal, priority 2021, dated 2024).

The nature of data set [1]: Body weight during TGI experiments. The class given is in vivo, NU(NCr)-Foxn1nu female mice. The note with it: repeated oral treatment (QD or BID), Example 99 sodium salt suspension. As for the experimental part: NU(NCr)-Foxn1nu mice were inoculated subcutaneously at the right flank with 1×10^6 (HCT-116 or A375) or 3×10^6 (A101D, A2058, RKO, HT29 SK-MEL 30, Calu-6, HepG2, Lovo, NCI-H2122, NCIH1666 and NCIH1755) tumour cells in 0.2 mL of the 50:50 PBS:Matrigel mixture for tumour development. Tumour measurements were taken with an electronic microcalliper three times weekly. In addition, body weights were recorded at these times. Tumor volume was calculated, taking length to be the longest diameter across the tumor and width to be the corresponding perpendicular diameter using the following formula: ((length×width×[…])/2).
For tumor growth inhibition (TGI) experiments, the treatment was performed when mean tumour size reached approximately 200 mm^3, with at least 7 mice for each time point randomized to balance the average tumour size for each treatment group. Mice were administered orally (QD or BID) with a suspension of Example 99 sodium salt in a formulation consisting of 1% NMP, 0.3% Tween-80, pH 9.1. Example 99: Na+ powder was directly resuspended in the complete blank formulation. Dosing volume was 10 mL/kg, yielding the indicated doses (doses are in mg per kg or mpk). Tumours were measured with an electronic microcalliper three times weekly. In addition, body weights were recorded at these times. Tumor volume was calculated as described above. […]

A further data set deals with BRAF (Homo sapiens (Human), UniProt P15056). Description: BRAF kinase activity assay (ADP-Glo). The data set is classed as biochemical. The note with it: read-out: Kinase IC50 (nM) BRAF. In short, it runs like this:
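ADP-Glo luminescence assay of BRAF and CRAF kinase reactions with MEK1 substrate and ATP. Reactions ran 2 h at 30 °C with compound over nine concentrations from 100 nM to 0.01 nM, at 0.05% DMSO final. IC50 came from four-parameter variable-slope fits of % inhibition.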
A general note: ADP-Glo first removes unused ATP, then detects ADP through luciferase.

One may read the IC50 as the concentration that gives 50% inhibition.

SMILES strings stand for the structures.

BRAF, sequence (P15056 whole entry): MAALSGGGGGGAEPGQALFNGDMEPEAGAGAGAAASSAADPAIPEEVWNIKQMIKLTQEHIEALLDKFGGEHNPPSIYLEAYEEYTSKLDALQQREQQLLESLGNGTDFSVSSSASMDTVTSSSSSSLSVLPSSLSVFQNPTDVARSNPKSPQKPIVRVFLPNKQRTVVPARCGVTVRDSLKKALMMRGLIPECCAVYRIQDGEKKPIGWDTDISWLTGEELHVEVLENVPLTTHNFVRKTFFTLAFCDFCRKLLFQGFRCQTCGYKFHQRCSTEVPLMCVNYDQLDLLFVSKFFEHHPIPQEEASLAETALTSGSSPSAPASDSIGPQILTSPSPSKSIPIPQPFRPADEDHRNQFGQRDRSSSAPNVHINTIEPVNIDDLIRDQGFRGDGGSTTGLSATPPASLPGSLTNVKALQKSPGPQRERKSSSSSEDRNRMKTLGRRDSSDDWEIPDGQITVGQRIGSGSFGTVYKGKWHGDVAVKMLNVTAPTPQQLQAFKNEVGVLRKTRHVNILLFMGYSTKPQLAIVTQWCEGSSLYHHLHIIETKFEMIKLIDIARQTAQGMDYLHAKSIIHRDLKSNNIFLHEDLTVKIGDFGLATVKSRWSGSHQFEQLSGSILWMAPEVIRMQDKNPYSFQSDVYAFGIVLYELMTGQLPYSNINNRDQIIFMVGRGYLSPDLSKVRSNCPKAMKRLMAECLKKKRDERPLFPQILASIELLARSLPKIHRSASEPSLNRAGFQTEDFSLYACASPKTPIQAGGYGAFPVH

Regarding `Nc1cccc2c1ncn2-c1ccc2ncnc(Nc3c(F)ccc(NS(=O)(=O)c4cccc(Cl)c4Cl)c3F)c2n1` [Example 99], the “change in body weight compared to vehicle-treated animals” value in data set [1] is “did not result in any change in body weight”. In addition, the half-maximal inhibitory concentration (IC50) on BRAF was less than 1 nM.
